Reference: US20190201526A1, “Methods and Compositions for Treating Cancers by Inhibiting Estrogen Signaling in Myeloid-Derived Suppressor Cells” (The Wistar Institute of Anatomy and Biology, priority 2016, published 2019)

How the values were obtained:
[1] = system: metastatic solid tumors; settings: patients with metastatic solid tumors; Soliman, et al., Oncotarget 2014; cited from earlier work
[2] = system: G- or M-MDSCs isolated from 6-day bone marrow cultures; experiment: MDSC suppression assay (Cell Trace Violet dilution of T cells); assay type: cell-based, mouse; settings: 6-day BM cultures
Method: (§1) Mouse MDSCs were expanded from mouse bone marrow harvested by flushing tibias and femurs with media. Following red blood cell lysis, 2.5×10^6 cells were cultured in 10 mL of RPMI+10% FBS augmented with recombinant mouse 40 ng/mL GM-CSF^+40 ng/mL IL6 (Peprotech) and incubated at 37° C., 5% CO2 3 or 6 days. Vehicle, estradiol, or MPP treatments were added as described above. For 6 day cultures, cytokines and estrogen treatments were refreshed on day 3. Following incubation, floating and adherent cells were collected, and MMDSCs and G-MDSCs were isolated via MDSC purification kit according to manufacturer's protocol for further analysis. Human MDSCs were expanded from human lung cancer patient bone marrow acquired as single cell suspensions (see above). Briefly, 2×10^6 cells were cultured in 3 mL of IMDM^+ 15% FBS supplemented with recombinant human 40 ng/mL GM-CSF^+ 40 ng/mL IL6 (Peprotech) and treated with Vehicle, 2 μM, or 10 μM MPP (see above) for 4 days. Cells were subsequently harvested and analyzed by flow cytometry.
Naïve WT T cells were purified from spleens as described and labeled with the proliferation tracker Cell Trace Violet according to manufacturer protocol. T cell proliferation was stimulated by adding anti-CD3/CD28 mouse T-activator beads (Thermo) at a 1:1 T cell to bead ratio according to manufacturer protocol. […]

[3] = system: Lewis Lung Carcinomas (LLC); experiment: Lewis Lung Carcinoma (LLC) tumor progression in mice; assay type: in vivo, mouse; settings: estradiol supplementation, WT mice (FIG. 3A)
Method: (§2) Female 5-8 week old wild-type (WT) C57BL/6 and congenic Ly5.1 mice were purchased from the Charles River Frederick facility. Esr1 knockout (ERα KO) were purchased from The Jackson Laboratory. Ovariectomies were performed by Charles River staff at 5 weeks of age. Mice were treated with vehicle (0.1% ethanol) or 10 μM estradiol (USP grade, Sigma) drinking water refreshed every 3-4 days. All mice were maintained in pathogen-free barrier facilities. All experiments were conducted according to the approval of the Wistar Institute Institutional Animal Care and Use Committee.
ID8 cells were retrovirally transduced to express Defb29 and Vegf-α (Conejo-Garcia, et al. “Tumor-infiltrating dendritic cell precursors recruited by a beta-defensin contribute to vaculogenesis under the influence of Vegf-A.” Nat. Med. (2004) 10:950-8). MCF-7, MDA-MB-231, and LLC1 cells were obtained from American Type Culture Collection. Peritoneal tumors were initiated in mice by injecting 3X106 ID8-Defb29/Vegf-α cells intraperitoneal (i.p.). Intraperitoneal cells were harvested from tumorbearing mice by flushing the peritoneal cavity with PBS. […] Cell line proliferation was determined by MTS assay (Promega), and increased/decreased proliferation relative to vehicle was calculated.

[4] = system: ID8-Defb29/Vegf-α peritoneal tumors; experiment: Intraperitoneal ID8-Defb29/Vegf-α ovarian tumor model (survival, flow cytometry, ELISpot); assay type: in vivo, mouse
Method: as §2
(§3) ID8 cells were retrovirally transduced to express Defb29 and Vegf-α (Conejo-Garcia, et al. “Tumor-infiltrating dendritic cell precursors recruited by a beta-defensin contribute to vaculogenesis under the influence of Vegf-A.” Nat. Med. (2004) 10:950-8). MCF-7, MDA-MB-231, and LLC1 cells were obtained from American Type Culture Collection. Peritoneal tumors were initiated in mice by injecting 3X106 ID8-Defb29/Vegf-α cells intraperitoneal (i.p.). Intraperitoneal cells were harvested from tumorbearing mice by flushing the peritoneal cavity with PBS. Cells were maintained in vitro at 37° C., 5% CO2 by culturing in RPMI+10% FBS or steroid free media (SFR10), which was comprised of phenol red-free RPMI+10% charcoal-stripped FBS. Cells were treated in vitro with vehicle (0.1% DMSO) or varying concentrations of estradiol, fulvestrant, or Methylpiperidino pyrazole (MPP) purchased from Cayman Chemical. Cell line proliferation was determined by MTS assay (Promega), and increased/decreased proliferation relative to vehicle was calculated.
For generating mixed BM chimeras, mononuclear BM cells were collected from adult agematched CD45.1 (congenic) WT or CD45.2 Esr1^−/− donor mice, and 1-2×10^6 cells were mixed in a 1:1 ratio and retro-orbitally injected into lethally irradiated (˜950 rad) adult recipients. Mixed chimeras were analyzed after 7-8 weeks as indicated.
(§4) Flow cytometry was performed by staining cells with Zombie Yellow viability dye, blocking with anti-CD16/32 (2.4G2), and staining for 30 min at 4° C. with the following anti-mouse antibodies: CD45 (30-F11), CD45.1 (A20), CD45.2 (104), CD11c (N418), I-A/I-E (M5/114.15.2), CD3 (145-2C11), Ly6G (1A8), Ly6C (HK1.4), gp130 (4H1B35), IL6R (D7715A7), Gr1 (RB6-4C5), CD4 (RM4-5), CD8b (YTS156.7.7), CD44 (IM7), CD69 (H1.2F3), CD11b (M1/70); or anti-human antibodies: CD45 (HI30), CD11c (Bul5), HLA-DR-APC/Cy7 (L243), CD15 (HI98), CD14 (HCD14), CD11b (ICRF44), CD33 (WM53), CD19 (HIB19). Samples were subsequently run using an LSRII and analyzed using FlowJo.
Dendritic cells (BMDCs) were differentiated by culturing WT mouse bone marrow for 7 days with 20 ng/mL GM-CSF (Peprotech 315-03), refreshed every 3 days. BMDCs were subsequently primed with tumor antigen by pulsing for 24 hours with irradiated (100 Gy+30 minutes UV) ID8-Defb29/Vegf-α cells at a ratio of 10:1. ELISPOT assay was performed by stimulating 1X105 cells obtained from peritoneal wash with 1X104 antigen-primed BMDCs in a 96-well filter plate (Millipore MSIPS4510) coated with IFNγ capture antibody according to manufacturer's guidelines (eBioscience 88-3784-88). Following incubation at 37° C., 5% CO2 or 48 hours, positive spots were developed using Avidin-AP and BCIP-NBT substrate (R&D Systems SEL002).

[5] = system: IL6Rα chain, gp130; experiment: Surface expression of IL6Rα and gp130 on BM-derived MDSCs (flow cytometry); assay type: cell-based, mouse
Method: as §4
as §1, with “Human MDSCs were expanded from human lung cancer patient bone marrow acquired as single cell suspensions (see above). Briefly, 2×10^6 cells were cultured in 3 mL of IMDM^+ 15% FBS supplemented with recombinant human 40 ng/mL GM-CSF^+ 40 ng/mL IL6 (Peprotech) and treated with Vehicle, 2 μM, or 10 μM MPP (see above) for 4 days.” left out

[6] = system: ID8-Defb29/Vegf-α cells; experiment: Cell line proliferation by MTS assay; assay type: cell-based, mouse; settings: ID8-Defb29/Vegf-α cells in vitro, increasing doses, steroid-free media; MCF-7 as positive control (FIG. 1D)
Description: as §3

[7] = system: Jak2; experiment: Jak2 RNA and protein expression in BM-derived MDSCs; assay type: cell-based, mouse
Method: as §1
(§5) Cells were lysed in RIPA buffer supplemented with protease inhibitors, phosphatase inhibitors, and Na3VO4 (Thermo) according to manufacturer protocol. Protein quantification was determined via BCA assay, and protein was run on TGX 4-15% gradient gels. Following transfer, PVDF membranes were blocked with 5% BSA in TBS+ 0.05% Tween-20. […]

[8] = system: STAT3; experiment: pSTAT3 and total STAT3 in in vitro BM-derived MDSC cultures (Western blot); assay type: cell-based, mouse; settings: 100 ng/mL E2 or 2 μM MPP (FIG. 6B)
Method: as §1, §5

[9] = system: STAT3; experiment: pSTAT3 in MDSCs from tumor-bearing mice (Western blot); assay type: in vivo, mouse; settings: spleens of advanced ovarian cancer-bearing mice treated with E2, compared to oophorectomized mice (FIG. 6A)
Method: as §2
Cells were lysed in RIPA buffer supplemented with protease inhibitors, phosphatase inhibitors, and Na3VO4 (Thermo) according to manufacturer protocol. Protein quantification was determined via BCA assay, and protein was run on TGX 4-15% gradient gels. Following transfer, PVDF membranes were blocked with 5% BSA in TBS+ 0.05% Tween-20. The following primary antibodies were added to membranes, as indicated, and incubated overnight: Jak2 (rabbit clone#D2E12), Stat3 (clone#124H6) and pStat3 (Tyr705)(rabbit clone#D3A7), from Cell Signaling; and ERα (Thermo, clone#TE111.5D11) and beta-actin (Sigma, clone#AC-15).
Following secondary staining with HRP-conjugated anti-mouse or rabbit IgG, membranes were developed using ECL prime (GE Healthcare).

SMILES | Activity in human clinical trials [1] | Inhibitory activity of M-MDSCs ([2]; 100 ng/mL E2 (FIG. 5C, bottom)) | Immunosuppressive activity of G-MDSCs ([2]; 100 ng/mL E2 or 2 μM MPP (FIG. 5C, top)) | Malignant growth of LLC tumors [3] | Survival of LLC tumor-bearing mice [3] | Tumor progression in irradiated mice reconstituted with wild-type bone marrow ([4]; E2 treatment, compared to mice reconstituted with ERα-deficient bone marrow (FIG. 4B)) | IFN-γ ELISpot response of tumor-associated T cells to tumor antigens ([4]; T cells from E2-treated mice vs control and oophorectomized mice (FIG. 2C)) | Inflammation at tumor (peritoneal) beds ([4]; ad libitum estradiol supplementation, tumor-bearing mice (FIG. 2A)) | Tumor progression in ERα KO hosts ([4]; estradiol supplementation, ERα KO mice (FIG. 4A)) | Tumor progression in wild-type controls ([4]; estradiol supplementation, wild-type mice (FIG. 4A)) | Proportions of CD44+ CD69+ tumor-associated CD4 and CD8 T-cells ([4]; estradiol-supplemented tumor-bearing mice (FIG. 2B)) | Percentage and total numbers of M-MDSC and G-MDSC ([4]; spleen and tumor beds of tumor-bearing mice (FIGS. 3B to 3E)) | Surface expression of the IL6Rα chain ([5]; BM-MDSCs (FIG. 6D, left)) | Surface expression of gp130 ([5]; BM-MDSCs (FIG. 6D, right)) | Proliferation relative to vehicle (response to treatment) [6] | Jak2 protein expression ([7]; BM-derived MDSCs (FIG. 6E, right)) | Jak2 RNA expression ([7]; cytokine-induced bone marrow MDSCs of both lineages (FIG. 6E, left)) | Phospho-STAT3 in M-MDSCs and G-MDSCs [8] | Levels of pSTAT3Y705 in monocytic and granulocytic MDSCs [9]
Cn1cc(C[C@@H](N)C(=O)O)c2ccccc21 [Indoximod, 1-methyl-D-tryptophan] | has shown activity | – | – | – | – | – | – | – | – | – | – | – | – | – | – | – | – | – | –
C[C@]12CC[C@@H]3c4ccc(O)cc4CC[C@H]3[C@@H]1CC[C@@H]2O [estradiol] | – | did not affect | more potently immunosuppressive | accelerated malignant growth | decreased survival | tumors progress significantly faster | responded significantly worse than either group | augmented inflammation | failed to accelerate tumor progression | significant effects | decreases | increased | did not elicit changes | did not elicit changes | fail to respond | reproducible Jak2 up-regulation | transcriptional up-regulation | increased phospho-STAT3 levels | significantly increased
